The subject of series [1] is R6/2 mice. The series can be described thus: Behavioral tests (grip strength, open field, rotarod) in R6/2 mice. It counts as in vivo. Conditions: 0.5% bezafibrate diet. As to the method: (§1) All experiments were conducted within National Institutes of Health guidelines for animal research and were approved by the Weill Cornell Medical College Animal Care and Use Committee. The animals were kept on a 12-hr light/dark cycle, with food and water available ad libitum. Mice were fed standard diet containing 0.5% bezafibrate or standard diet (Purina-Mills Richmond, Ind., USA), starting right after weaning up to 3 months of age.
Experimenters were blind to the genotype during all testing, at least until the appearance of a robust behavioral phenotype in the mutants. We utilized a behavioral testing battery consisting of: rotarod, grip strength and open field. […] The latency to fall from the rod was recorded. Exploratory behavior was recorded in the open-field (45 cm×45 cm; height: 20 cm), for 10 min per day using a video tracking system (Ethovision 3.0, Noldus Technology, Attleborough, Mass., USA) and averaged over 3 days. […]
To assess muscle strength we tested the R6/2 mice and their wild-type littermates on the grip strength test (FIG. 2A). […] Motor coordination was assessed by performance on an accelerated rotarod apparatus. Latency to fall was recorded for 3 trials per weekly assessment and scores were averaged (FIG. 2C).
Background: Falling from the rotarod earlier than controls is read as motor impairment.

Series [2] deals with R6/2 mice. Briefly: Survival of R6/2 mice (Kaplan-Meier). It counts as in vivo. The conditions noted are these: 0.5% bezafibrate diet. Here is the method: as §1
R6/2 mice normally die prematurely as compared to their wild-type littermates, between the age of 70-91 days (Mangiarini et al. 1996). Symptomatic mice approaching the disease endstage were examined twice daily (morning and late afternoon) to assess when they reached end-stage of the disease, as assessed by the righting reflex or failure to eat moistened chow placed beside mice over a 24 hour period. At this point, mice were euthanized by CO2 inhalation. This day was recorded as time of death of the mice. […] In our hands, the R6/2 mice survived to 77-88 days of age, and the longest living mouse died at 90 days of age (mean=84+1.2 days). Bezafibrate treated R6/2 mice lived 20% longer than the R6/2 mice on a standard diet (mean=102+3.2 days) (FIG. 2D).

The next series deals with P301S mice. The series can be described thus: Mitochondria characterisation in brains of P301S and wild-type mice. It counts as in vivo. The text has this:
Animals were generated by breeding P301S transgenic male mice with wild-type female mice obtained from Jackson Laboratory (Bar Harbor, Me., USA). Offspring were genotyped by PCR of tail DNA. P301S transgenic mice and their wild-type littermates were randomly assigned to receive either control diet (LabDiet 5002) or 0.5% bezafibrate diet (Sigma, St. Louis, Mo., USA) from 1 to 10 months of age ad libitum. The chow was pelleted by Purina-Mills (Richmond, Ind., USA). Behavioral analyses were performed at 5, 7, and 9 months of age. Histopathological and biochemical analyses were conducted at 10 months of age on the same animals. All experiments were approved by the Weill Cornell Medical College Institutional Animal Care and Use Committee.
Dissected, non-perfused frontal lobe samples (˜30-55 mg) were stored frozen at ? 80° C. until assaying. Before assays, tissue samples were thawed on ice and homogenized with Dounce-type 2 ml homogenizer (glass vessel/glass pestle). […]
The protein lysates containing equal amounts of protein were separated by SDS-PAGE, electroblotted onto a nitrocellulose membrane (BioRad, Hercules, Calif., USA), and immunoreacted with an appropriate primary antibody (see below) followed by HRP-conjugated secondary antibody (Kierkegaard Perry Labs Inc., Gaithersburg, Md., USA). […] Quantitative analysis was performed using NIH “ImageJ” software. […]

For series [3] the following is noted: used in man for more than 25 years; cited from earlier work.
The test system of a further series is N171-82Q mice. The conditions noted are these: cited from earlier work.

`CC(C)(Oc1ccc(CCNC(=O)c2ccc(Cl)cc2)cc1)C(=O)O` [bezafibrate]: the “increase in grip strength compared to untreated R6/2 mice” value with R6/2 mice [1] is “up to 2 fold”. In the series with R6/2 mice [2], the “increase in survival vs R6/2 mice on standard diet” value turned out to be 20%. In addition, in the series on R6/2 mice [2] (standard diet mean=84+1.2 days), the mean survival was 102+3.2 days. Further, the “mitochondrial enzymes and PGC1α in brain” value in the series with P301S mice is on record as “no effect”. The tolerability in man result in series [3] is “well-tolerated with few side effects”.

On to `CN(CC(=O)O)C(=N)N` [creatine], for which the increase in survival in the series with N171-82Q mice was 19%.
